Measurements as given in patent US20100286139A1, “AMINO PYRAZOLE COMPOUND” (ELI LILLY AND COMPANY, priority 2008, published 2010).

Biological target: T1, JAK2 (Homo sapiens, UniProt O60674)
T1 construct: endogenous in cells; host or cells: TF-1 (human erythroid leukemia) cells, EPO-stimulated
Experiment: JAK2 EPO-TF1/pSTAT5 cell-based assay (Cellomics ArrayScan HCS)
Conditions: TF-1 cells, EPO 1.6 U/mL stimulated, n=4; read-out: relative IC50, inhibition of pSTAT5
Excerpt: JAK2 EPO-TF1/pSTAT5 cell-based assay mimics the constitutive activation of JAK2-STAT5 in erythroid progenitor cells, which drives the overproduction of red blood cells, a marker of polycythemia vera (PV).
TF-1 (human erythroid leukemia) cells are maintained in RPMI 1640 (RPMI-1640 was developed by Moore et. al. at Roswell Park Memorial Institute. The formulation is based on the RPMI-1630 series of media utilizing a bicarbonate buffering system and alterations in the amounts of amino acids and vitamins.) with 10% fetal bovine serum (FBS), 0.075% sodium bicarbonate, 1 mM sodium pyruvate, 1× antibiotic/antimycotic (Invitrogen, Carlsbad, Calif.) and 0.45% glucose. The medium is supplemented with GM-CSF (granulocyte-macrophage colony-stimulating factor) at a final concentration of 2 ng/mL. Cells are kept at 37° C. with 5% CO2. Cells are starved in serum free medium to remove endogenous growth factors. TF-1 cells are counted and cells are collected to seed 2×10^7 cells per 96-well plate at a density of 2×10^5 cells per well. […]
To perform the assay, serum-starved cells are collected and washed once with unsupplemented RPMI 1640 medium. […] An aliquot of 200 μL of 1 to 10 dilution of Mouse anti-pSTAT5 (pY694) Alexa Fluor 647® in fluorescence activated cell sorting (FACS) buffer is added to the cells. […]

T1 sequence (O60674 whole entry): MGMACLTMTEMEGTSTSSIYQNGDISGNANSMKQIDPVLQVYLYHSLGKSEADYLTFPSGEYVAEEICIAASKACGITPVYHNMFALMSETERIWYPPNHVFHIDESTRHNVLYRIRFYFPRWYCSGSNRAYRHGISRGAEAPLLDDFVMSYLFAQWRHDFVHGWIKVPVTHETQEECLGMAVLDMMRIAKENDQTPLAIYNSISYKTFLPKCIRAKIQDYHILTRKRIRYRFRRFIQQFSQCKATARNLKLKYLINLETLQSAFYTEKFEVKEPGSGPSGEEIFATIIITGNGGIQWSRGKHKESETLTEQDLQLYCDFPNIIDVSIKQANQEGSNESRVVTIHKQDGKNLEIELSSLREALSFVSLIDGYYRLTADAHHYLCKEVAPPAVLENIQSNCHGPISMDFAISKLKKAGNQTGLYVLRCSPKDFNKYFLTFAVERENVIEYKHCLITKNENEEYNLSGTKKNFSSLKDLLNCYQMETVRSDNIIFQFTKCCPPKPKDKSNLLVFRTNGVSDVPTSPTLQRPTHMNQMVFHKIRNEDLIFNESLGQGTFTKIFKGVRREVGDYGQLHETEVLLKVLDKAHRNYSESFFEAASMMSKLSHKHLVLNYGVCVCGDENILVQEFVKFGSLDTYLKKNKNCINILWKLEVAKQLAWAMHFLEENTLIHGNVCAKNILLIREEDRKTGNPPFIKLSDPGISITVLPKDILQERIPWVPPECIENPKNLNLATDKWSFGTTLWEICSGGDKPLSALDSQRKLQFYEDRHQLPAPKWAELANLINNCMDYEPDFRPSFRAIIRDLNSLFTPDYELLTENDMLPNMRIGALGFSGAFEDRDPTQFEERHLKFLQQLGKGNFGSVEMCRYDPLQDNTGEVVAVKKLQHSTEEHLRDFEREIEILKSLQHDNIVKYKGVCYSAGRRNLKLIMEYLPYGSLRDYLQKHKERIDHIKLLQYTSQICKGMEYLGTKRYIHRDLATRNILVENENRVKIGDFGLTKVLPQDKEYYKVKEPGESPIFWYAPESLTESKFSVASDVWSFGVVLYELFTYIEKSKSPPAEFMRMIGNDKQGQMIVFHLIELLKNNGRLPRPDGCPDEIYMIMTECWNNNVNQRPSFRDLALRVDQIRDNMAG

Cc1cc(Nc2cc(CN3CCOCC3)c3nc(C)c(Cc4ccc(Cl)cc4F)n3n2)n[nH]1 [3-(4-Chloro-2-fluorobenzyl)-2-methyl-N-(5-methyl-1H-pyrazol-3-yl)-8-(morpholinomethyl)imidazo[1,2-b]pyridazin-6-amine]
IC50: 33 nM
